Assay results taken from PubChem BioAssay (NCI).
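Briefly, cells in 96-well plates were exposed to five compound concentrations for 48 h, and endpoints were estimated by linear interpolation. Here, GI50 denotes the concentration required for 50% inhibition of growth. TGI is the concentration that stops growth completely.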

Key:
Assay in all cases: inhibition of tumour cell growth, NCI panel, 48 h
SR leukemia = tested on: SR leukemia
UO-31 renal = tested on: UO-31 renal
UACC-257 melanoma = tested on: UACC-257 melanoma
M14 melanoma = tested on: M14 melanoma
KM12 colon = tested on: KM12 colon
SW-620 colon = tested on: SW-620 colon
EKVX NSCLC = tested on: EKVX NSCLC
SF-539 CNS = tested on: SF-539 CNS
NCI-H460 lung = tested on: NCI-H460 lung
MALME-3M melanoma = tested on: MALME-3M melanoma
MCF7 breast = tested on: MCF7 breast
A498 renal = tested on: A498 renal
HCT-116 colon = tested on: HCT-116 colon
SK-MEL-5 melanoma = tested on: SK-MEL-5 melanoma
SK-MEL-28 melanoma = tested on: SK-MEL-28 melanoma
SNB-75 CNS = tested on: SNB-75 CNS
HT29 colon = tested on: HT29 colon
SK-MEL-2 melanoma = tested on: SK-MEL-2 melanoma
UACC-62 melanoma = tested on: UACC-62 melanoma
BT-549 breast = tested on: BT-549 breast
SN12C renal = tested on: SN12C renal
CAKI-1 renal = tested on: CAKI-1 renal
HOP-92 NSCLC = tested on: HOP-92 NSCLC
786-0 renal = tested on: 786-0 renal
MDA-MB-435 = tested on: MDA-MB-435
ACHN renal = tested on: ACHN renal
NCI/ADR-RES ovarian = tested on: NCI/ADR-RES ovarian
HL-60(TB) leukemia = tested on: HL-60(TB) leukemia
SF-295 CNS = tested on: SF-295 CNS
LOX IMVI melanoma = tested on: LOX IMVI melanoma
IGROV1 ovarian = tested on: IGROV1 ovarian
HS 578T breast = tested on: HS 578T breast
NCI-H23 lung = tested on: NCI-H23 lung
COLO 205 colon = tested on: COLO 205 colon
OVCAR-4 ovarian = tested on: OVCAR-4 ovarian
U251 CNS = tested on: U251 CNS
A549 NSCLC = tested on: A549 NSCLC
RXF 393 renal = tested on: RXF 393 renal
TK-10 renal = tested on: TK-10 renal
CCRF-CEM leukemia = tested on: CCRF-CEM leukemia
OVCAR-8 ovarian = tested on: OVCAR-8 ovarian
MDA-MB-231 breast = tested on: MDA-MB-231 breast
PC-3 prostate = tested on: PC-3 prostate
SNB-19 CNS = tested on: SNB-19 CNS
OVCAR-5 ovarian = tested on: OVCAR-5 ovarian
DU-145 prostate = tested on: DU-145 prostate
HCT-15 colon = tested on: HCT-15 colon
NCI-H522 lung = tested on: NCI-H522 lung
HCC-2998 colon = tested on: HCC-2998 colon
SF-268 CNS = tested on: SF-268 CNS
HOP-62 NSCLC = tested on: HOP-62 NSCLC
SK-OV-3 ovarian = tested on: SK-OV-3 ovarian
NCI-H226 lung = tested on: NCI-H226 lung
MOLT-4 leukemia = tested on: MOLT-4 leukemia
T-47D breast = tested on: T-47D breast
OVCAR-3 ovarian = tested on: OVCAR-3 ovarian
K-562 leukemia = tested on: K-562 leukemia
RPMI-8226 leukemia = tested on: RPMI-8226 leukemia

## CC1=C([Te]c2ccc(O)cc2)C(=O)c2ccccc2C1=O
SR leukemia
  GI50: 0.461 µM
  TGI: 2.67 µM
UO-31 renal
  GI50: 1.56 µM
  TGI: 4.98 µM
UACC-257 melanoma
  GI50: 2.91 µM
  TGI: 10.4 µM
M14 melanoma
  GI50: 1.88 µM
  TGI: 5.05 µM
KM12 colon
  GI50: 1.3 µM
  TGI: 3.27 µM
SW-620 colon
  GI50: 1.47 µM
  TGI: 3.15 µM
EKVX NSCLC
  GI50: 0.428 µM
  TGI: 6.58 µM
SF-539 CNS
  GI50: 1.8 µM
  TGI: 4.23 µM
NCI-H460 lung
  GI50: 0.347 µM
  TGI: 1.62 µM
MALME-3M melanoma
  GI50: 2.79 µM
  TGI: 7.12 µM
MCF7 breast
  GI50: 1.49 µM
  TGI: 4.08 µM
A498 renal
  GI50: 1.36 µM
  TGI: 3.01 µM
HCT-116 colon
  GI50: 0.715 µM
  TGI: 2.05 µM
SK-MEL-5 melanoma
  GI50: 1.53 µM
  TGI: 2.92 µM
SK-MEL-28 melanoma
  GI50: 2.41 µM
  TGI: 6.09 µM
SNB-75 CNS
  GI50: 1.31 µM
  TGI: 9.02 µM
HT29 colon
  GI50: 0.396 µM
  TGI: 1.55 µM
SK-MEL-2 melanoma
  GI50: 2.78 µM
  TGI: 8.15 µM
UACC-62 melanoma
  GI50: 1.6 µM
  TGI: 4.01 µM
BT-549 breast
  GI50: 0.448 µM
  TGI: 4.22 µM
SN12C renal
  GI50: 2.29 µM
  TGI: 9.33 µM
CAKI-1 renal
  GI50: 2.21 µM
  TGI: 7.41 µM
HOP-92 NSCLC
  GI50: 1.09 µM
  TGI: 2.75 µM
786-0 renal
  GI50: 2.61 µM
  TGI: 7.88 µM
MDA-MB-435
  GI50: 2.35 µM
  TGI: 5.79 µM
ACHN renal
  GI50: 1.54 µM
  TGI: 3.85 µM
NCI/ADR-RES ovarian
  GI50: 2.42 µM
  TGI: 8.3 µM
HL-60(TB) leukemia
  GI50: 1.83 µM
  TGI: 5 µM
SF-295 CNS
  GI50: 0.348 µM
  TGI: 1.98 µM
LOX IMVI melanoma
  GI50: 1.69 µM
  TGI: 4.35 µM
IGROV1 ovarian
  GI50: 1.08 µM
  TGI: 4.91 µM
HS 578T breast
  GI50: 1.83 µM
  TGI: 7.6 µM
NCI-H23 lung
  GI50: 1.84 µM
  TGI: 5.84 µM
COLO 205 colon
  GI50: 0.383 µM
  TGI: 1.4 µM
OVCAR-4 ovarian
  GI50: 1.95 µM
  TGI: 4.38 µM
U251 CNS
  GI50: 1.31 µM
  TGI: 7.28 µM
A549 NSCLC
  GI50: 0.404 µM
  TGI: 4.18 µM
RXF 393 renal
  GI50: 2.42 µM
  TGI: 9.46 µM
TK-10 renal
  GI50: 2.67 µM
  TGI: 7.6 µM
CCRF-CEM leukemia
  GI50: 0.806 µM
  TGI: 4.38 µM
OVCAR-8 ovarian
  GI50: 2.4 µM
  TGI: 8.34 µM
MDA-MB-231 breast
  GI50: 1.89 µM
  TGI: 5.4 µM
PC-3 prostate
  GI50: 1.53 µM
  TGI: 5.11 µM
SNB-19 CNS
  GI50: 2.8 µM
  TGI: 10.7 µM
OVCAR-5 ovarian
  GI50: 2.44 µM
  TGI: 7.75 µM
DU-145 prostate
  GI50: 2.32 µM
  TGI: 6.02 µM
HCT-15 colon
  GI50: 1.01 µM
  TGI: 4.31 µM
NCI-H522 lung
  GI50: 2.16 µM
  TGI: 7.31 µM
HCC-2998 colon
  GI50: 2.88 µM
  TGI: 9.66 µM
SF-268 CNS
  GI50: 2.63 µM
  TGI: 9.03 µM
HOP-62 NSCLC
  GI50: 0.9 µM
  TGI: 5.15 µM
SK-OV-3 ovarian
  GI50: 1.66 µM
  TGI: 4.52 µM
NCI-H226 lung
  GI50: 0.33 µM
  TGI: 1.57 µM
MOLT-4 leukemia
  GI50: 0.907 µM
  TGI: 4.3 µM
T-47D breast
  GI50: 1.1 µM
  TGI: 3.25 µM
OVCAR-3 ovarian
  GI50: 1.44 µM
  TGI: 2.79 µM
K-562 leukemia
  GI50: 1.93 µM
  TGI: 4.36 µM
RPMI-8226 leukemia
  GI50: 1.16 µM
  TGI: 4.51 µM

## Cc1cc(Oc2ccc3nc(COc4ccc(CC5SC(=O)NC5=O)cc4)n(C)c3c2)cc(C)c1N (configuration not stated)
SR leukemia
  GI50: 31.7 µM
  TGI: > 100 µM
UO-31 renal
  GI50: 24.8 µM
  TGI: > 81.6 µM
UACC-257 melanoma
  GI50: 30.8 µM
  TGI: > 75.5 µM
M14 melanoma
  GI50: 29.6 µM
  TGI: > 78.3 µM
KM12 colon
  GI50: 26.5 µM
  TGI: > 76.2 µM
SW-620 colon
  GI50: 30.6 µM
  TGI: > 100 µM
EKVX NSCLC
  GI50: 39 µM
  TGI: > 100 µM
SF-539 CNS
  GI50: 43.3 µM
  TGI: > 83.4 µM
NCI-H460 lung
  GI50: 26.6 µM
  TGI: > 90.7 µM
MALME-3M melanoma
  GI50: > 53.3 µM
  TGI: > 100 µM
MCF7 breast
  GI50: 27.6 µM
  TGI: 98.9 µM
A498 renal
  GI50: > 43.4 µM
  TGI: > 100 µM
HCT-116 colon
  GI50: 26.7 µM
  TGI: > 85.3 µM
SK-MEL-5 melanoma
  GI50: 15.6 µM
  TGI: 32.5 µM
SK-MEL-28 melanoma
  GI50: 49.7 µM
  TGI: > 100 µM
SNB-75 CNS
  GI50: 27.6 µM
  TGI: > 72.7 µM
HT29 colon
  GI50: 45.2 µM
  TGI: > 100 µM
SK-MEL-2 melanoma
  GI50: > 49.4 µM
  TGI: > 69.7 µM
UACC-62 melanoma
  GI50: 22.5 µM
  TGI: 72.4 µM
BT-549 breast
  GI50: 24.2 µM
  TGI: > 79.2 µM
SN12C renal
  GI50: 44.1 µM
  TGI: > 100 µM
CAKI-1 renal
  GI50: 30.9 µM
  TGI: > 100 µM
HOP-92 NSCLC
  GI50: > 34.4 µM
  TGI: > 87.5 µM
786-0 renal
  GI50: 49.9 µM
  TGI: > 100 µM
MDA-MB-435
  GI50: 27.4 µM
  TGI: > 100 µM
ACHN renal
  GI50: 48.9 µM
  TGI: > 100 µM
NCI/ADR-RES ovarian
  GI50: 32.5 µM
  TGI: > 100 µM
HL-60(TB) leukemia
  GI50: 26.8 µM
  TGI: 88 µM
SF-295 CNS
  GI50: 32.5 µM
  TGI: > 100 µM
LOX IMVI melanoma
  GI50: 17.2 µM
  TGI: > 71.3 µM
IGROV1 ovarian
  GI50: > 64.3 µM
  TGI: > 100 µM
HS 578T breast
  GI50: > 57.3 µM
  TGI: > 100 µM
NCI-H23 lung
  GI50: 24.2 µM
  TGI: > 72.2 µM
COLO 205 colon
  GI50: 32.1 µM
  TGI: > 100 µM
OVCAR-4 ovarian
  GI50: 34.2 µM
  TGI: > 100 µM
U251 CNS
  GI50: 32.2 µM
  TGI: > 94 µM
A549 NSCLC
  GI50: 29.5 µM
  TGI: > 87.7 µM
RXF 393 renal
  GI50: 50.8 µM
  TGI: > 100 µM
TK-10 renal
  GI50: > 52.6 µM
  TGI: > 91.6 µM
CCRF-CEM leukemia
  GI50: 30.9 µM
  TGI: > 100 µM
OVCAR-8 ovarian
  GI50: 31.2 µM
  TGI: > 86.5 µM
MDA-MB-231 breast
  GI50: 45.4 µM
  TGI: > 100 µM
PC-3 prostate
  GI50: 31.8 µM
  TGI: > 90.1 µM
SNB-19 CNS
  GI50: 42.2 µM
  TGI: > 100 µM
OVCAR-5 ovarian
  GI50: > 63.7 µM
  TGI: > 100 µM
DU-145 prostate
  GI50: 45.8 µM
  TGI: > 100 µM
HCT-15 colon
  GI50: 29.1 µM
  TGI: > 87.8 µM
NCI-H522 lung
  GI50: 33.2 µM
  TGI: > 73.9 µM
HCC-2998 colon
  GI50: 54.9 µM
  TGI: > 100 µM
SF-268 CNS
  GI50: 46.7 µM
  TGI: > 100 µM
HOP-62 NSCLC
  GI50: 48.7 µM
  TGI: > 100 µM
SK-OV-3 ovarian
  GI50: > 66.1 µM
  TGI: > 100 µM
NCI-H226 lung
  GI50: 46.8 µM
  TGI: > 95.7 µM
MOLT-4 leukemia
  GI50: 26.4 µM
  TGI: 69.5 µM
T-47D breast
  GI50: 25.7 µM
  TGI: > 66.9 µM
OVCAR-3 ovarian
  GI50: 28 µM
  TGI: > 70.9 µM
K-562 leukemia
  GI50: 35.4 µM
  TGI: > 100 µM
RPMI-8226 leukemia
  GI50: 9.73 µM
  TGI: 45.4 µM
